Results on six substances are retold here after patent publication US20250041367A1, “BACTERIOPHAGES AND USE THEREOF FOR THE TREATMENT OR PREVENTION OF INFECTION CAUSED BY E. COLI” (Purdue Research Foundation, priority 2023, published 2025).

Data set [1] has as its system E. coli serotype O78:H51 (APEC). The experiment in a line: Host range spot assay. The note with it: E. coli serotype O78:H51, scale 0-3. Type of data set: cell-based, Escherichia coli. More on the design: key: — indicates no lysis at all; 0.1-1.0 indicates that the phage is semi-lytic; 1.1-2.0 indicates moderate lysis of bacteria; 2.1-3.0 indicates complete lysis of bacteria and formation of a transparent, circular clearing on the bacterial lawn. The procedure:
(§1) The host range of each bacteriophage type was determined by performing spot assays using each of the ten distinct APEC serotypes mentioned above. Spot assays were performed as known in the art (Barrow et al., 1998, Clinical and Diagnostic Laboratory Immunology, 5 (3), 294-298). 100 μL aliquots of log-phase bacterial cultures were combined with 67.5 μL 1M CaCl2) and 4 mL LB overlay, mixed briefly, and poured over LB agar plates. Once the overlay had solidified, 5 μL aliquots of individual phage types were applied (i.e., spotted) onto the plates, and plates were incubated at 37° C. overnight. Plates were assessed for clearings the following day and the degree of lysis was measured using a four-point scale in which 0 indicated no lysis, 1.0 indicated some lysis, 2.0 indicated moderate lysis, and 3 indicated complete lysis. Spot assays were conducted in triplicate for each phage and APEC strain.

Data set [2] deals with E. coli serotype O1:H23 (APEC). The experiment in a line: Host range spot assay. Type of data set: cell-based, Escherichia coli. The note with it: E. coli serotype O1:H23, scale 0-3. More on the design: key: — indicates no lysis at all; 0.1-1.0 indicates that the phage is semi-lytic; 1.1-2.0 indicates moderate lysis of bacteria; 2.1-3.0 indicates complete lysis of bacteria and formation of a transparent, circular clearing on the bacterial lawn. Here is the method: as §1

Data set [3] relates to E. coli serotype O6:H31 (APEC). Nature of the data set: Host range spot assay. Type of data set: cell-based, Escherichia coli. More on the design: key: — indicates no lysis at all; 0.1-1.0 indicates that the phage is semi-lytic; 1.1-2.0 indicates moderate lysis of bacteria; 2.1-3.0 indicates complete lysis of bacteria and formation of a transparent, circular clearing on the bacterial lawn. As to conditions: E. coli serotype O6:H31, scale 0-3. The procedure: as §1

The test system of data set [4] is E. coli serotype O78 (APEC). The experiment in a line: Host range spot assay. Type of data set: cell-based, Escherichia coli. Set-up: key: — indicates no lysis at all; 0.1-1.0 indicates that the phage is semi-lytic; 1.1-2.0 indicates moderate lysis of bacteria; 2.1-3.0 indicates complete lysis of bacteria and formation of a transparent, circular clearing on the bacterial lawn. The note with it: E. coli serotype O78, scale 0-3. Here is the method:
as §1

The test system of data set [5] is E. coli serotype O1:H7 (APEC). Nature of the data set: Host range spot assay. More on the design: key: — indicates no lysis at all; 0.1-1.0 indicates that the phage is semi-lytic; 1.1-2.0 indicates moderate lysis of bacteria; 2.1-3.0 indicates complete lysis of bacteria and formation of a transparent, circular clearing on the bacterial lawn. The note with it: E. coli serotype O1:H7, scale 0-3. Type of data set: cell-based, Escherichia coli. The procedure:
as §1

Data set [6] has as its system E. coli serotype O5 (APEC). The experiment in a line: Host range spot assay. Type of data set: cell-based, Escherichia coli. Set-up: key: — indicates no lysis at all; 0.1-1.0 indicates that the phage is semi-lytic; 1.1-2.0 indicates moderate lysis of bacteria; 2.1-3.0 indicates complete lysis of bacteria and formation of a transparent, circular clearing on the bacterial lawn. As to conditions: E. coli serotype O5, scale 0-3. Here is the method: as §1

The subject of data set [7] is E. coli serotype O78:H9 (APEC). Nature of the data set: Host range spot assay. In kind it is cell-based, Escherichia coli. Set-up: key: — indicates no lysis at all; 0.1-1.0 indicates that the phage is semi-lytic; 1.1-2.0 indicates moderate lysis of bacteria; 2.1-3.0 indicates complete lysis of bacteria and formation of a transparent, circular clearing on the bacterial lawn. The note with it: E. coli serotype O78:H9, scale 0-3. Here is the method:
as §1

In data set [8] the test system is E. coli serotype O2 (APEC). The experiment in a line: Host range spot assay. The note with it: E. coli serotype O2, scale 0-3. In kind it is cell-based, Escherichia coli. More on the design: key: — indicates no lysis at all; 0.1-1.0 indicates that the phage is semi-lytic; 1.1-2.0 indicates moderate lysis of bacteria; 2.1-3.0 indicates complete lysis of bacteria and formation of a transparent, circular clearing on the bacterial lawn. Here is the method: as §1

Data set [9] has as its system E. coli serotype O2:H4 (APEC). The experiment in a line: Host range spot assay. Type of data set: cell-based, Escherichia coli. More on the design: key: — indicates no lysis at all; 0.1-1.0 indicates that the phage is semi-lytic; 1.1-2.0 indicates moderate lysis of bacteria; 2.1-3.0 indicates complete lysis of bacteria and formation of a transparent, circular clearing on the bacterial lawn. As to conditions: E. coli serotype O2:H4, scale 0-3. The procedure:
as §1

A short description of data set [10]: Phage stability in simulated gastric fluid (SGF). In kind it is physicochemical. As to conditions: for phage concentration lower in SGF-exposed than in PBS-exposed samples: 90 minutes of exposure; for phage concentration, unencapsulated, SGF-exposed: SGF pH 2.5 with pepsin; for phage concentration, unencapsulated, SGF-exposed / phage concentration, unencapsulated, PBS-treated: 41° C.; for phage concentration, unencapsulated, PBS-treated: 1×PBS control. Here is the method:
The stability of bacteriophages in gastric environments was tested by exposing both encapsulated and unencapsulated bacteriophages to simulated gastric fluid (SGF; 0.32% pepsin (w/v) in 0.2% NaCl; pH 2.5) and to 1×PBS (Moghtader et al., 2016). In this experiment, unencapsulated phages (0.5 mL, in concentrations ranging from 1×10^9 to 4×10^8 PFU/mL depending on the phage type) were added to 4.5 mL of either SGF or PBS (5 replicates per treatment) and incubated at 41° C. This temperature was chosen as it is a typical internal temperature for chickens. Encapsulated phages (0.5 g, in concentrations ranging from 2×10^9 to 2×10^8 PFU/mL depending on the phage type) were also added to 4.5 mL of either SGF or PBS (5 replicates per treatment) and incubated at 41° C. Aliquots (100 μL) were collected from each unencapsulated phage sample after 5, 15, 30, 60, and 90 minutes of exposure to SGF or PBS. These aliquots were serially diluted, and phage concentrations were measured by standard plaque assay. At 15, 30, 60, and 90 minutes post-SGF or PBS exposure, microencapsulated phages were washed with SM buffer to remove residual SGF or PBS and then dissolved in a dissolving solution. Aliquots of the dissolved microcapsules were serially diluted and phage concentrations were measured by standard plaque assay. This experiment was conducted in triplicate for each phage type. Samples containing SGF and unencapsulated bacteriophages were serially diluted without washing and phage concentrations were measured by standard plaque assay as described above. Concentrations of viable phages after exposure to SGF or PBS for a given length of time were then compared.

The test system of data set [11] is E. coli serotype O2:H6 (APEC). The experiment in a line: Host range spot assay. In kind it is cell-based, Escherichia coli. As to conditions: E. coli serotype O2:H6, scale 0-3. The procedure:
as §1

“Also recorded” adds a separate entry of the source.

Turning to Escherichia phage vB_Eco_AHP, the degree of lysis result is “—” in data set [1]; 3.0 in data set [2]; 3.0 in [3]; “—” in data set [4]; 3.0 in data set [5]; “—” in data set [6]. The degree of lysis entry in data set [7] is “—”; in data set [8], “—”; in [9], “—”; in data set [11] it was 2.7. Besides, the “phage concentration, encapsulated, PBS-exposed” value is given as 9.23 log10 PFU/mL in [10] (encapsulated phage, 60 minutes) and 9.19 log10 PFU/mL in data set [10] (encapsulated phage, 90 minutes). Also, the “phage concentration, encapsulated, SGF-exposed” value in [10] (encapsulated phage, 60 minutes) is recorded as 9.21 log10 PFU/mL; in data set [10] (encapsulated phage, 90 minutes), 8.12 log10 PFU/mL. In data set [10] (unencapsulated phage), the “phage concentration lower in SGF-exposed than in PBS-exposed samples” value (“phage concentration lower” below) is 2.35 log10 PFU/mL. Also, the “phage concentration SGF-exposed versus PBS-exposed” value in data set [10] (unencapsulated phage, after 5 and 15 minutes of exposure, P>0.05) is given as “No significant differences”; in data set [10] (unencapsulated phage, after 30, 60, and 90 minutes of exposure, P<0.05) it was “significantly lower”.
For Escherichia phage vB_Eco_MIA, the degree of lysis is listed as 1.0 in data set [1]; 1.0 in data set [2]; 2.7 in [3]; 2.0 in [4]; “—” in [5]; 1.7 in data set [6]. Besides, the degree of lysis entry is “—” in data set [7], 3.0 in data set [8], “—” in data set [9] and 2.3 in [11]. Besides, the “phage concentration, encapsulated, PBS-exposed” value is 8.27 log10 PFU/mL in data set [10] (encapsulated phage, 60 minutes) and 8.27 log10 PFU/mL in data set [10] (encapsulated phage, 90 minutes). In addition, the “phage concentration, encapsulated, SGF-exposed” value in data set [10] (encapsulated phage, 60 minutes) was 8.14 log10 PFU/mL; in data set [10] (encapsulated phage, 90 minutes), 7.34 log10 PFU/mL. In addition, in data set [10] (unencapsulated phage), the “phage concentration, unencapsulated, SGF-exposed” value is “could not be detected; also recorded: not detectable”.
Turning to Escherichia phage vB_Eco_MP_1 [MP1], the degree of lysis entry in [1], in data set [2], in [3], in data set [4], in data set [5] and in data set [6] was “—” in each case. The degree of lysis entry was “—” in data set [7], “—” in data set [8], 2.7 in [9] and 2.7 in data set [11]. Also, the “phage concentration lower” value in data set [10] (encapsulated phage) is reported as 0.97 log10 PFU/mL; in [10] (unencapsulated phage) it was 3.9 log10 PFU/mL. Moreover, the “phage concentration, encapsulated, PBS-exposed” value in data set [10] (encapsulated phage, 60 minutes) was 9.23 log10 PFU/mL; in data set [10] (encapsulated phage, 90 minutes) it was 9.19 log10 PFU/mL. Also, the “phage concentration, encapsulated, SGF-exposed” value in data set [10] (encapsulated phage, 60 minutes) was 9.09 log10 PFU/mL; in data set [10] (encapsulated phage, 90 minutes) it was 8.11 log10 PFU/mL. The “phage concentration, unencapsulated, PBS-treated” value in [10] (unencapsulated phage) is listed as 9.27 log10 PFU/mL. For the same substance, the “phage concentration, unencapsulated, SGF-exposed” value in data set [10] (unencapsulated phage) is on record as 8.71 log10 PFU/mL.
For Escherichia phage vB_Eco_MP_2 [MP2], the degree of lysis entry in data set [1], in data set [2], in [3], in data set [4], in [5] and in [6] was “—” in each case. Further, the degree of lysis entry in [7] is reported as “—”; in data set [8] it was “—”; in data set [9] it was 3.0; in data set [11], 3.0. The results for the “phage concentration lower” value in [10] (encapsulated phage) and in data set [10] (unencapsulated phage) were 0.74 log10 PFU/mL and 4.5 log10 PFU/mL, respectively. Moreover, the “phage concentration, encapsulated, PBS-exposed” value in data set [10] (encapsulated phage, 60 minutes) is recorded as 9.15 log10 PFU/mL; in data set [10] (encapsulated phage, 90 minutes) it was 9.07 log10 PFU/mL. Besides, the “phage concentration, encapsulated, SGF-exposed” value is reported as 9.11 log10 PFU/mL in data set [10] (encapsulated phage, 60 minutes) and 8.41 log10 PFU/mL in data set [10] (encapsulated phage, 90 minutes). For the same substance, in data set [10] (unencapsulated phage), the “phage concentration, unencapsulated, PBS-treated” value is 9.05 log10 PFU/mL. The “phage concentration, unencapsulated, SGF-exposed” value in data set [10] (unencapsulated phage) is reported as 7.72 log10 PFU/mL.
With Escherichia phage vB_Eco_AHC, the degree of lysis is listed as 1.0 in [1]; 1.0 in [2]; 2.7 in data set [3]; 1.7 in data set [4]; “—” in data set [5]; 1.7 in data set [6]. Also, the degree of lysis result is listed as “—” in [7], 3.0 in data set [8], “—” in data set [9] and 2.0 in [11]. Also, the “phage concentration, encapsulated, PBS-exposed” value is on record as 8.31 log10 PFU/mL in data set [10] (encapsulated phage, 60 minutes) and 8.23 log10 PFU/mL in [10] (encapsulated phage, 90 minutes). Further, the “phage concentration, encapsulated, SGF-exposed” value in data set [10] (encapsulated phage, 60 minutes) is reported as 8.13 log10 PFU/mL; in data set [10] (encapsulated phage, 90 minutes), 7.15 log10 PFU/mL. Besides, the “phage concentration, unencapsulated, SGF-exposed” value in [10] (unencapsulated phage) is on record as “could not be detected; also recorded: not detectable”.
For the substance Escherichia phage vB_Eco_AKA, the degree of lysis is 1.0 in data set [1]; 1.0 in [2]; 3.0 in [3]; 1.3 in [4]; “—” in data set [5]; 1.7 in [6]. For the same substance, the degree of lysis entry in [7] is “—”; in data set [8], 2.7; in [9] it was “—”; in [11] it was 1.7. In addition, the “phage concentration, encapsulated, PBS-exposed” value in [10] (encapsulated phage, 60 minutes) is 8.27 log10 PFU/mL; in data set [10] (encapsulated phage, 90 minutes) it was 8.22 log10 PFU/mL. In addition, the “phage concentration, encapsulated, SGF-exposed” value in data set [10] (encapsulated phage, 60 minutes) is on record as 8.17 log10 PFU/mL; in data set [10] (encapsulated phage, 90 minutes), 7.3 log10 PFU/mL. Further, the “phage concentration, unencapsulated, SGF-exposed” value in data set [10] (unencapsulated phage) is reported as “could not be detected; also recorded: not detectable”.
